Test results: patent US8633356B2, “Method for controlling root parasitic plants” (Riken, priority 2008, dated 2014)

Tests used:
[1] = system: tiller bud outgrowth of rice
Description: Rice and Arabidopsis seeds were surface-sterilized and the seedlings were first grown aseptically on agar media. Plants were then grown hydroponically in growth chambers. For both rice and Arabidopsis, strigolactones were added to the hydroponic culture medium.
We used rice normal cultivars (Oryza sativa L. cv. Shiokari and cv. Nipponbare) and tillering dwarf mutants (FIG. 6) in this study. Rice seeds were washed in 70% ethanol for 30 sec, sterilized in 2.5% sodium hypochlorite solution for 15 min, rinsed with sterile water, and then imbibed at 28° C. in the dark for 2 days. Germinated seeds were transferred into hydroponic culture media^39 solidified with 0.6% agar (pH5.7) and cultured at 25° C. under fluorescence white light (150-200 μmol m^−2 s^−1) with a 16 h light/8 h dark photoperiod for 5 days. Each seedling was then transferred to a glass vial containing a sterilized hydroponic culture solution (13 ml), fixed with a piece of sponge at the root-shoot junction to the top of the vial, and grown under the same condition for additional 7 days (total 2 weeks). The hydroponic solution was supplemented every 3 days. For large-scale cultures, the 2-weeks-old seedlings were transferred into a 4-L porcelain pot containing the same hydroponic solution and grown under the same condition. After the transfer to pots, the solution was renewed weekly.
To further investigate the relationships between the D10/D17-derived branching inhibitor and strigolactones, we examined the effect of strigolactone treatment on rice d mutants.

D10 transcript = experiment: qRT-PCR of D10 transcript levels in rice roots; assay type: in vivo, Oryza sativa; conditions: roots of 8-day-old seedlings, 1 μM (+)-GR24 for 24 h (FIG. 3h)
Description: We performed quantitative reverse transcription-PCR (qRT-PCR) to determine D10 transcript levels, according to the method described before^38. Total RNA was extracted from roots using RNeasy Maxi kit (Qiagen). qRT-PCR was carried out to determine D10 transcript levels using gene specific primers and a Taq-Man probe (Table 1 as describe above). Ubiquitin expression was used as an internal standard.

[2] = system: axillary bud outgrowth of Arabidopsis; experiment: Axillary bud outgrowth (shoot branching) of Arabidopsis in hydroponic culture; assay type: in vivo, Arabidopsis thaliana; conditions: 5 μM in the hydroponic culture media
Description: Plants were then grown hydroponically in growth chambers. […] We used Arabidopsis thaliana ecotype Col-0 as the wild type and max mutants (FIG. 6). Seeds were sterilized in 1% sodium hypochlorite solution for 5 min, rinsed with sterile water, and stratified for one day at 4° C. […] Plants were then transferred to a glass pot containing 400 ml hydroponic solution^41 and grown under the same environmental condition for additional 15 days. The solution was renewed every 3 days. To measure germination stimulants, sterilized and stratified seeds were placed on glass beads (30 ml) wetted with 1/10 strength MS liquid media (10 ml) in a Petri dish (9 cm diameter) and grown for 14 days under the same conditions above. The culture media were collected and subjected to S. hermonthica germination assay.

S. hermonthica seeds = experiment: Germination assay using S. hermonthica seeds; assay type: in vivo, Striga hermonthica; conditions: positive control, 10^−7 M (FIG. 2f)
From the text: The levels of strigolactones released to hydroponic culture media were estimated by germination stimulating activity using S. hermonthica seeds as described previously ^32 Strigolactones were identified and quantified on LC-MS/MS by comparing the retention time and full-scan spectrum with those of authentic standards. We synthesized deuterium-labeled epi-5DS (d1-epi-5DS) and used as an internal standard for quantitative analysis using LC-MS/MS. Germination assays using S. hermonthica were performed as described previously^32 For each bioassay, de-ionized water and (+)-strigol solution were used as negative and positive controls, respectively.

For `CC1=C[C@H](O/C=C2/C(=O)O[C@@H]3c4ccccc4C[C@H]23)OC1=O` [GR24], the “tiller bud outgrowth at 1 μM” value ([1]; 1 μM, 2-week-old d10-1 and d17-1 seedlings) was “nearly fully inhibited”, the “lowest concentration at which the inhibitory effect on tiller bud outgrowth was detectable” value ([1]; 2-week-old d10-1 and d17-1 seedlings) was 10 nM and the “inhibition of tiller bud outgrowth” value ([1]; 2-week-old d10-1 and d17-1 seedlings, compound applied to the media) was “inhibited tiller bud outgrowth of 2-week-old d10-1 and d17-1 seedlings in a dose-dependent manner”. For the same compound, the “effect on d3-1 mutant plants” value ([1]; 6-week-old d3-1, 2 μM in the culture media) was “no visible effect”, the “branching phenotype and plant height of d10-1 mutant” value ([1]; 6-week-old d10-1, 2 μM in the culture media) was “complemented” and the “sensitivity of tiller bud outgrowth of the d3-1 mutant” value ([1]; d3-1 mutant seedlings (defective in probable signaling component)) was “insensitive”. For the same compound, the “morphological abnormalities in wild type seedlings after treatment” value ([1]; in vivo) was “No morphological abnormalities were evident”, the “plant height of wild type seedlings” value ([1]; in vivo) was “did not change the plant height” and the “D10 transcript levels in d10-1 and wild type seedlings” value (D10 transcript) was “decreased”. The “sensitivity of branching of max2 mutants” value [2] was “insensitive” and the “enhanced branching phenotype of max3 and max4 mutants” value ([2]; 30-day-old plants) was “rescued”.

With `CC1=C[C@H](O/C=C2/C(=O)O[C@@H]3C4=C(C[C@H]23)[C@@H](O)CCC4(C)C)OC1=O` [(+)-strigol, (+)-Strigol] the “germination of S. hermonthica seeds” value (S. hermonthica seeds) was “germination induced”.
